Assay [1] has as its system α-SMA mRNA in NRK-49F cells. Put plainly: Inhibition of α-SMA mRNA in TGF-β-activated NRK-49F fibroblasts. It is filed as cell-based, rat. As for the experimental part:
(§1) CTGF, collagen 1 and α-SMA are fibrotic markers produced by activated fibroblasts and by epithelial cells that undergo to epithelial-mesenchymal transition (EMT).
(§2) Table 2: Percentage of inhibition of collagen in epithelial cells (HK2 cells) and fibroblasts (NHDF) and percentage of inhibition of α-SMA in fibroblasts (NRK-49F and NHDF) has been determined for several compounds according the invention. In all cases, the mRNA of collagen and α-SMA has been measured, and the inhibition was evaluated in presence of a respective concentration of the tested compound. The compounds have been tested at different concentrations [mM]. All compounds reduce the expression of collagen and α-SMA in HK-2, NHDF and NRK-49F cells.

Assay [2] has as its system collagen 1 mRNA in NHDF cells. In words: Inhibition of collagen mRNA in TGF-β-activated NHDF fibroblasts. It is filed as cell-based. The settings on record: Homo sapiens, compound 0.5 mM. As for the experimental part: as §1, §2
The subject of assay [3] is collagen 1 mRNA in HK-2 cells (epithelial cells). In words: Inhibition of collagen mRNA in TGF-β-treated HK-2 epithelial cells. The settings on record: for inhibition at 500 µM: HK-2, compound 0.5 mM; for Collagen HK-2 cells % inhibition: compound 0.25 mM. The format is cell-based. As for the experimental part: as §1, §2
[4] abbreviates: Rattus norvegicus, NRK-49F, compound 0.5 mM.
[5] abbreviates: Rattus norvegicus, NRK-49F, compound 0.25 mM.

Where a name gives a salt, the structure may show the parent alone.

With `CCCCCc1cc(O)cc(CC(=O)O)c1` [Compound II, Sodium Salt of 3-hydroxy-5-pentylphenylacetic acid], the inhibition at 500 µM was 66% in assay [1] (setting [4]), 40% in assay [2] and 43% in assay [3] (Homo sapiens).
`CCCCCc1cc(F)cc(CC(=O)O)c1` [Compound III, Sodium Salt of 3-fluoro-5-pentylphenylacetic acid] returned an inhibition at 250 µM in assay [1] (setting [5]) of 100%. This compound displayed an inhibition at 500 µM in assay [3] (Homo sapiens) of 100%.
Turning to `CCC/C=C/c1cccc(CC(=O)O)c1` [Compound IV, Sodium Salt of E-(3-pent-1-enyl-phenyl)acetic acid], testing at 500 µM in assay [1] (setting [4]) gave an inhibition of 64%.
As to `CCCCCc1cccc(C(F)C(=O)[O-])c1.[Na+]` (stereo not shown) [Compound IX, Sodium Salt of 2-Fluoro-2-(3-pentylphenyl)acetic acid], the “α-SMA NRK-49F cells % inhibition” value in assay [1] (compound 0.5 mM) is reported as 82%.
On to `CCCCCc1cc(CCC(=O)O)ccc1F` [Compound VI, Sodium Salt of 3-(4-fluoro-3-pentylphenyl)propionic acid], for which 125 µM produced 90% inhibition in assay [1] (Rattus norvegicus, NRK-49F, compound 0.125 mM).
As for `CCCCCc1cccc(CCC(=O)[O-])c1.[Na+]` [Compound VII, Sodium Salt of 3-(3-pentylphenyl)propionic acid], the “α-SMA NRK-49F cells % inhibition” value in assay [1] (compound 0.25 mM) is 100%.
The same measure, in the same setting: for `CCCCCc1cccc(C(C)C(=O)[O-])c1.[Na+]` (stereo not shown) [Compound VIII, Sodium Salt of 2-(3-pentylphenyl)propionic acid] the value was 86%.
Regarding `CCCCCc1cccc(C(C)(C)C(=O)[O-])c1.[Na+]` [Compound X, Sodium Salt of 2-methyl-2-(3-pentylphenyl)propionic acid], the “α-SMA NRK-49F cells % inhibition” value in assay [1] (compound 0.1 mM) is recorded as 46%.
On to `CCCCCCc1cccc(CC(=O)O)c1` [Compound XI, Sodium Salt of 2-(3-Hexylphenyl)acetic acid], for which, in assay [1] (Rattus norvegicus, NRK-49F, compound 0.1 mM), at 100 µM the inhibition was 80%.
On to `CCCCC=Cc1cccc(CC(=O)[O-])c1.[Na+]` [Compound XII, Sodium Salt of 2-(3-(Hex-1-enyl)phenyl)acetic acid], for which the “α-SMA NRK-49F cells % inhibition” value in assay [1] (compound 0.1 mM) worked out at 49%.
In the case of `CCCC=Cc1ccc(F)c(CC(=O)[O-])c1.[Na+]` [Compound XIII, Sodium Salt of 2-(2-Fluoro-5-(pent-1-enyl)phenyl)acetic acid], the “α-SMA NRK-49F cells % inhibition” value in assay [1] (compound 0.5 mM) came out at 84%.
Take `CCCCCc1cc(CC(=O)O)ccc1O` [Compound XIV, Sodium Salt of 2-(4-Hydroxy-3-pentylphenyl)acetic acid]: the inhibition at 500 µM amounted to 92% in assay [1] (setting [4]), 26% in assay [2] and 72% in assay [3] (Homo sapiens).
On to `CCCCCc1cccc(CC(=O)[O-])c1O.[Na+]` [Compound XIX, Sodium Salt of 2-(2-Hydroxy-3-pentylphenyl)acetic acid], for which, in assay [1] (compound 0.25 mM), the “α-SMA NRK-49F cells % inhibition” value was 100%. In addition, in assay [3], the “Collagen HK-2 cells % inhibition” value was found to be 100%.
As for `CCCCCc1cc(CC(=O)O)ccc1F` [Compound XV, Sodium Salt of 2-(4-Fluoro-3-pentylphenyl)acetic acid], the inhibition at 500 µM in assay [1] (setting [4]) and in assay [3] (Homo sapiens) was 100% in each case.
Take `CCCCCc1cccc(CC(=O)O)c1F` [Compound XVI, Sodium Salt of 2-(2-Fluoro-3-pentylphenyl)acetic acid]: testing at 250 µM in assay [1] (setting [5]) gave an inhibition of 100%. The compound further returned an inhibition at 500 µM in assay [3] (Homo sapiens) of 100%.
Regarding `CCCCCc1cc(CCC(=O)[O-])ccc1O.[Na+]` [Compound XVII, Sodium Salt of 3-(4-Hydroxy-3-pentylphenyl)propanoic acid], in assay [1] (compound 0.5 mM), the “α-SMA NRK-49F cells % inhibition” value is 66%. The “Collagen HK-2 cells % inhibition” value in assay [3] is 0%.
For the compound `CCCCCc1cccc(C(=O)C(=O)[O-])c1.[Na+]` [Compound XVIII, Sodium Salt of 2-Oxo-2-(3-pentylphenyl)acetic acid], the “α-SMA NRK-49F cells % inhibition” value in assay [1] (compound 0.25 mM) stood at 100%.
For the compound `CCCCCc1cc(O)c(Cc2ccccc2)c(CC(=O)O)c1` [Compound XX, Sodium Salt of 2-(2-Benzyl-3-hydroxy-5-pentylphenyl)acetic acid], the inhibition at 62.5 µM in assay [1] (Rattus norvegicus, NRK-49F, compound 0.0625 mM) was determined as 95%. Further, the inhibition at 125 µM in assay [3] (Homo sapiens, HK-2, compound 0.125 mM) worked out at 73%.

The values are drawn from patent US10450258B2, “Substituted aromatic compounds for the treatment of pulmonary fibrosis, liver fibrosis, skin fibrosis and cardiac fibrosis” (PROMETIC PHARMA SMT LIMITED, priority 2013, dated 2019).
